Data as given in US11976057B2, “MrgX2 antagonists” (GlaxoSmithKline Intellectual Property Development Limited, priority 2020, dated 2024).
Blank lines part the entries; values can stand above or below the compound they belong to.

Molecular target: T1, human MRGPRX2 (Homo sapiens, UniProt Q96LB1)
T1 sequence (Q96LB1 1-330): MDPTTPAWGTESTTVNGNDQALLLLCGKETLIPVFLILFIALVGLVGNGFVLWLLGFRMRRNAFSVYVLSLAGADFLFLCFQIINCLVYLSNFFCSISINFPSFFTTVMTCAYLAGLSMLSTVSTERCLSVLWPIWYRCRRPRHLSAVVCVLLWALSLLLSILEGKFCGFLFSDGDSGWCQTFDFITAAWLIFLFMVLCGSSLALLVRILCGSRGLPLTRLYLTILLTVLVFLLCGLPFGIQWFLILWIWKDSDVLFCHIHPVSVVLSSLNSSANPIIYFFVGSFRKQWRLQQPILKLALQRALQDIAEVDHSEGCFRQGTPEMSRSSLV
Test: Ca2+ mobilization assay (FLIPR TETRA): inhibition of Cortistatin-14 mediated MRGPRX2 activation

SMILES: CC(C(=O)Nc1ccc(Cc2nccs2)cn1)N1CCC(F)(F)[C@@H](c2ccc(=O)[nH]c2)C1 (stereo partly drawn) [Example 52, 2-((S)-4,4-difluoro-3-(6-oxo-1,6-dihydropyridin-3-yl)piperidin-1-yl)-N-(5-(thiazol-2-ylmethyl)pyridin-2-yl)propanamide]
IC50: 100 to 3160 nM

SMILES: C[C@@H](C(=O)Nc1ccc(C(=O)c2ccc(F)cc2)cn1)N1CCC(F)(F)[C@@H](c2cc[n+]([O-])cc2)C1 [Example 128, 4-((S)-4,4-difluoro-1-((S)-1-((5-(4-fluorobenzoyl)pyridin-2-yl)amino)-1-oxopropan-2-yl)piperidin-3-yl)pyridine 1-oxide]
IC50: 100 to 3160 nM

SMILES: C[C@@H](C(=O)Nc1ccc(Cl)cn1)N1CCC[C@@H](c2cc[n+]([O-])cc2)C1 (single isomer, unassigned) [Example 180]
IC50: 3160 to 31600 nM

SMILES: CC(C(=O)Nc1ccc(CC2CCCC2)cn1)N1CCC(F)(F)[C@@H](c2ccc(=O)[nH]c2)C1 (stereo partly drawn) [Example 33, N-(5-(cyclopentyl-methyl)pyridin-2-yl)-2-((S)-4,4-difluoro-3-(6-oxo-1,6-dihydropyridin-3-yl)piperidin-1-yl)propanamide]
IC50: 100 to 3160 nM

SMILES: C[C@@H](C(=O)Nc1ccc(C(=O)OC2CCC2)cn1)N1CCC(F)(F)[C@@H](c2ccc(=O)[nH]c2)C1 [Example 37, cyclobutyl 6-((S)-2-((S)-4,4-difluoro-3-(6-oxo-1,6-dihydropyridin-3-yl)piperidin-1-yl)propanamido) nicotinate]
IC50: 100 to 3160 nM

SMILES: C[C@@H](C(=O)Nc1ccc(Cl)cn1)N1CCC[C@@H](c2ccc(=O)n(CC(F)(F)F)c2)C1 (single isomer, unassigned) [Example 167]
IC50: 100 to 3160 nM

SMILES: C[C@@H](C(=O)Nc1ccc(OCC2CC2)cn1)N1CCC(F)(F)[C@@](C)(c2ccc(=O)[nH]c2)C1 [Example 163, (S)—N-(5-(cyclopropylmethoxy)pyridin-2-yl)-2-((S)-4,4-difluoro-3-methyl-3-(6-oxo-1,6-dihydropyridin-3-yl)piperidin-1-yl)propanamide]
IC50: 100 to 3160 nM

SMILES: CC(C(=O)Nc1cc2cnn(CC3CC3)c2cn1)N1CCC(F)(F)[C@@H](c2ccc(=O)[nH]c2)C1 (stereo partly drawn) [Example 40, N-(1-(cyclopropyl-methyl)-1H-pyrazolo[3,4-c]pyridin-5-yl)-2-((S)-4,4-difluoro-3-(6-oxo-1,6-dihydropyridin-3-yl)piperidin-1-yl)propanamide]
IC50: 100 to 3160 nM

SMILES: C[C@@H](C(=O)Nc1ccc(OCC2CC2)nn1)N1CCC(F)(F)C(c2ccc(=O)n(CCS(C)(=O)=O)c2)C1 (stereo partly drawn) [Example 191, (2S)-N-(6-(cyclopropylmethoxy)pyridazin-3-yl)-2-(4,4-difluoro-3-(1-(2-(methylsulfonyl)ethyl)-6-oxo-1,6-dihydropyridin-3-yl)piperidin-1-yl)propanamide]
IC50: 100 to 3160 nM

SMILES: CC(C(=O)Nc1ccc2cc(C3CC3)cnc2n1)N1CCC(F)(F)[C@@H](c2ccc(=O)[nH]c2)C1 (stereo partly drawn) [Example 77, N-(6-cyclopropyl-1,8-naphthyridin-2-yl)-2-((S)-4,4-difluoro-3-(6-oxo-1,6-dihydropyridin-3-yl)piperidin-1-yl)propanamide]
IC50: 100 to 3160 nM

SMILES: C[C@@H](C(=O)Nc1ccc(OCc2ncco2)cn1)N1CCC(F)(F)[C@@H](c2ccc(=O)[nH]c2)C1 [Example 38, (S)-2-((S)-4,4-difluoro-3-(6-oxo-1,6-dihydropyridin-3-yl)piperidin-1-yl)-N-(5-(oxazol-2-ylmethoxy)pyridin-2-yl)propanamide]
IC50: 100 to 3160 nM

Second part, the compound after the results:

IC50: ≤ 10 nM
SMILES: CC(=O)NCc1cc(C2CN(C(C)C(=O)Nc3ccc(Oc4ccc(F)cc4F)cn3)CCC2(F)F)cc[n+]1[O-] (mixture of isomers) [Example 262, 2-(acetamidomethyl)-4-(1-(1-((5-(2,4-difluorophenoxy)pyridin-2-yl)amino)-1-oxopropan-2-yl)-4,4-difluoropiperidin-3-yl)pyridine 1-oxide]

IC50: 100 to 3160 nM
SMILES: C[C@@H](C(=O)Nc1ccc(Oc2ccccc2)nn1)N1CCC(F)(F)[C@@H](c2ccc(=O)[nH]c2)C1 [Example 19, 2-((S)-4,4-difluoro-3-(6-oxo-1,6-dihydropyridin-3-yl)piperidin-1-yl)-N-(6-phenoxy-pyridazin-3-yl)propanamide]

IC50: 100 to 3160 nM
SMILES: C[C@@H](C(=O)Nc1ccc(OCC2CC2)nn1)N1CCC(F)(F)[C@@H](c2c[nH]c(=O)c(CN(C)C)c2)C1 [Example 231]

IC50: 10 to 100 nM
SMILES: CC(C(=O)Nc1ccc(F)cn1)N1CCC(F)(F)C(c2ccc(=O)n(Cc3ccncc3)c2)C1 (stereo not drawn) [Example 197, 2-(4,4-difluoro-3-(6-oxo-1-(pyridin-4-ylmethyl)-1,6-dihydropyridin-3-yl)piperidin-1-yl)-N-(5-fluoropyridin-2-yl)propanamide]

IC50: ≤ 10 nM
SMILES: C[C@@H](C(=O)Nc1ccc(Oc2cc(F)c(F)cc2F)cn1)N1CCC(F)(F)[C@@H](c2ccc(=O)[nH]c2)C1 [Example 97, (S)-2-((S)-4,4-difluoro-3-(6-oxo-1,6-dihydropyridin-3-yl)piperidin-1-yl)-N-(5-(2,4,5-trifluorophenoxy)pyridin-2-yl)propanamide]

IC50: 10 to 100 nM
SMILES: C[C@@H](C(=O)Nc1ccc(Oc2ccccn2)cn1)N1CCC(F)(F)[C@@H](c2cc[n+]([O-])cc2)C1 [Example 126, 4-((S)-4,4-difluoro-1-((S)-1-oxo-1-((5-(pyridin-2-yloxy)pyridin-2-yl)amino)propan-2-yl)piperidin-3-yl)pyridine 1-oxide]

IC50: 10 to 100 nM
SMILES: C[C@@H](C(=O)Nc1ccc(OCC2CC2)nn1)N1CCC(F)(F)[C@@H](c2c[nH]c(=O)c(N)c2)C1 [Example 140, (S)-2-((S)-3-(5-amino-6-oxo-1,6-dihydropyridin-3-yl)-4,4-difluoropiperidin-1-yl)-N-(6-(cyclopropylmethoxy)pyridazin-3-yl)propanamide]

IC50: ≤ 10 nM
SMILES: C[C@@H](C(=O)Nc1ccc(F)cn1)N1CCC(F)(F)[C@@H](c2ccc(=O)n(Cc3ccccc3)c2)C1 [Example 195]

IC50: ≤ 10 nM
SMILES: CNCc1cc([C@H]2CN([C@@H](C)C(=O)Nc3cnc(Oc4ccc(F)cc4F)cn3)CCC2(F)F)c[nH]c1=O [Example 244, (S)-2-((S)-4,4-difluoro-3-(5-((methylamino)methyl)-6-oxo-1,6-dihydropyridin-3-yl)piperidin-1-yl)-N-(5-(2,4-difluorophenoxy)pyrazin-2-yl)propanamide]

IC50: 10 to 100 nM
SMILES: CC(C(=O)Nc1ccc(Oc2ccc(F)cc2)cn1)N1CCC(F)(F)C(c2ccc(=O)n(CCS(C)(=O)=O)c2)C1 (stereo not drawn) [Example 192, 2-(4,4-difluoro-3-(1-(2-(methylsulfonyl)ethyl)-6-oxo-1,6-dihydropyridin-3-yl)piperidin-1-yl)-N-(5-(4-fluorophenoxy)pyridin-2-yl)propanamide]

IC50: ≤ 10 nM
SMILES: CNCc1cc([C@H]2CN([C@@H](C)C(=O)Nc3ccc(Oc4ccc(F)cc4F)cn3)CCC2(F)F)c[nH]c1=O [Example 243, (S)-2-((S)-4,4-difluoro-3-(5-((methylamino)methyl)-6-oxo-1,6-dihydropyridin-3-yl)piperidin-1-yl)-N-(5-(2,4-difluorophenoxy)pyridin-2-yl)propanamide]

IC50: 10 to 100 nM
SMILES: C[C@@H](C(=O)Nc1ccc(OCC2CC2)nn1)N1CCC(F)(F)C(c2c[nH]c(=O)c(C#N)c2)C1 (stereo partly drawn) [Example 223, (2S)-2-(3-(5-cyano-6-oxo-1,6-dihydropyridin-3-yl)-4,4-difluoropiperidin-1-yl)-N-(6-(cyclopropylmethoxy)pyridazin-3-yl)propanamide]

IC50: 10 to 100 nM
SMILES: C[C@@H](C(=O)Nc1ccc(F)cn1)N1CCC(F)(F)[C@@H](c2cc[n+]([O-])c(CC(F)(F)F)c2)C1 [Example 219]
